For data set [1] the following is noted: long-term administration; cited from earlier work.
For data set [2] the following is noted: cocaine addiction in humans, 9-week double-blind trial; cited from earlier work.
In data set [3] the target is T1, OAT (Homo sapiens, UniProt P04181).
T1 sequence (P04181 36-439 limits assumed): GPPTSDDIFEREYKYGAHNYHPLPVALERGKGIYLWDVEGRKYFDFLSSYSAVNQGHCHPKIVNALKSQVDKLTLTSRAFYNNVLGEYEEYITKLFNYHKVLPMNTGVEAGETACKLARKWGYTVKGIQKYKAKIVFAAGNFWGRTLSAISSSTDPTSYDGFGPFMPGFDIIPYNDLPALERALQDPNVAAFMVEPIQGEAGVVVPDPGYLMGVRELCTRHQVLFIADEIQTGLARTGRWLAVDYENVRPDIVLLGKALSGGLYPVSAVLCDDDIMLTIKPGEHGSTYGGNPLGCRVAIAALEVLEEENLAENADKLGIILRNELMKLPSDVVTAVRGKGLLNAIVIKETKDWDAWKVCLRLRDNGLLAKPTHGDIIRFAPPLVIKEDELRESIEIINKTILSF
Description: OAT inhibition / inactivation assay (concentration-dependent assay with OAT). The data set is classed as biochemical.

Data set [4] has as its system GABA-AT. Nature of the data set: Time-dependent assay with GABA-AT. The data set is classed as biochemical.
For data set [5], the system named is GABA-AT. Description: Concentration dependent assay of GABA-AT. The data set is classed as biochemical.
Data set [6] deals with T1, OAT. Nature of the data set: Time-dependent assay with OAT (kinact/KI). The data set is classed as biochemical. An excerpt:
In summary, enantiomerically pure 1 was synthesized from an enantiomerically pure Vince lactam in six steps.

Data set [7] deals with T1, OAT. Description: Partition ratio assay of OAT. The data set is classed as biochemical. The settings on record: with α-KG, FIG. 5. As to the method:
A partition ratio assay of OAT with NAL-1-47 was performed to determine the ratio of the compound acting as a substrate to the compound inactivating the enzyme.

The target of data set [8] is T1, OAT. Description: OAT fluoride release assay. The data set is classed as biochemical. The conditions noted are these: without α-ketoglutarate, FIG. 3. As to the method: An OAT fluoride release assay was performed with NAL-1-47 and it was calculated that there were 13.02 fluoride ions released per enzyme active site (FIG. 3).
Data set [9] deals with T1, OAT. Description: Dialysis assay of NAL-1-47 with OAT. The data set is classed as biochemical. The settings on record: for Percent Activity Remaining of OAT with NAL-1-47: pre-incubated overnight at 37° C. As to the method:
NAL-1-47 was incubated with OAT then dialyzed to determine whether it functions as a reversible inhibitor or an irreversible inactivator of OAT. NAL-1-47 was pre-incubated overnight at 37° C. with OAT. The remaining activity of the OAT was determined for 20, 50, 80, and 120 equiv of NAL-1-47 per OAT active site. The inactivated OAT was then dialyzed for 144 h and using a control, it was confirmed that the control OAT retained the majority of its activity after this dialysis.

Where [10] appears, read: listed as S, S enantiomer, hydrochloride.

“Also recorded” adds a separate entry of the source. Where two headings read alike, the source gives them in different places.

Take `C=CC(N)CCC(=O)O` (centres unmarked) [Vigabatrin]: the “permanent vision loss, share of epilepsy patients” value in data set [1] is reported as 25-40%. In addition, the patients achieving abstinence result in data set [2] is reported as “up to 28%”.

On to `N[C@@H]1C[C@H](C(=O)O)C(F)(F)C1` [NAL-1-73], for which the “inhibition / inactivation of OAT (in words)” value at OAT [3] (listed as R, R enantiomer) is recorded as “did not inhibit either OAT or GABA-AT potently”. Also, the “inhibitory activity against GABA-AT in time-dependent assays (in words)” value in the data set on GABA-AT [4] was “no significant inhibitory activity”. In addition, the “inhibition of GABA-AT (in words)” value is recorded as “neither compound potently inhibited GABA-AT” in the data set with GABA-AT [5] and “did not inhibit either OAT or GABA-AT potently” in the data set on GABA-AT [5] (listed as R, R enantiomer). The “Activity Remaining (GABA-AT)” value in the data set with GABA-AT [5] (Conc. 0.0781 mM) came to 100.9%; in the data set on GABA-AT [5] (Conc. 0.1563 mM) it was 94.5%; in the data set with GABA-AT [5] (Conc. 0.3125 mM) it was 95.1%; in the data set with GABA-AT [5] (Conc. 0.625 mM), 103.5%; in the data set on GABA-AT [5] (Conc. 1.25 mM), 88.8%; with GABA-AT [5] (Conc. 2.5 mM) it was 85.2%. The “Activity Remaining (GABA-AT)” value is listed as 70.3% in the data set with GABA-AT [5] (Conc. 5 mM) and 55.3% in the data set on GABA-AT [5] (Conc. 10 mM).

On to `Cl.N[C@H]1C[C@@H](C(=O)O)C(F)(F)C1` [NAL-1-47, (1S,4S)-4-amino-2,2-difluorocyclopentanecarboxylic acid hydrochloride], for which the kinact/KI on OAT [6] (OAT, Example 2, FIG. 4, read-out: kinact/KI (converted)) is 1.13 M⁻¹ s⁻¹; on OAT [6] (time-dependent assay with OAT, Example 1), 2.67 M⁻¹ s⁻¹. Also, the “inhibition / inactivation of OAT (in words)” value against OAT [3] (hydrochloride) is “shown to inactivate OAT; also recorded: found to inhibit OAT potently”; on OAT [3] (listed as 1, hydrochloride), “inhibitory activity against the enzymes GABA-AT and OAT; also recorded: inhibit OAT more potently than the racemic version of this compound; also recorded: determined as an inactivator; also recorded: selectively inactivate OAT and was more potent than the racemic compound”; on OAT [3] (setting [10]), “inactivate OAT”. In the data set on GABA-AT [4], the “inhibitory activity against GABA-AT in time-dependent assays (in words)” value is recorded as “no significant inhibitory activity”. Also, on OAT [7], the partition ratio worked out at 54.5. In addition, the “fluoride ions released per enzyme active site” value at OAT [8] amounted to 13.02. The “Percent Activity Remaining of OAT with NAL-1-47” value came out at 67.3% on OAT [9] (20 equiv per OAT active site), 52.5% at OAT [9] (50 equiv per OAT active site), 31.7% on OAT [9] (80 equiv per OAT active site) and 21.1% at OAT [9] (120 equiv per OAT active site). Moreover, the “Percent Activity Remaining of OAT with NAL-1-47 after 144 h Dialysis” value at OAT [9] (20 equiv) came out at 63.3%; on OAT [9] (50 equiv), 38.5%; on OAT [9] (80 equiv), 27.6%; at OAT [9] (120 equiv), 15.1%. Further, the “Activity Remaining (GABA-AT)” value with GABA-AT [5] (Conc. 0.0781 mM) came to 110.6%; in the data set on GABA-AT [5] (Conc. 0.1563 mM), 100.7%; in the data set on GABA-AT [5] (Conc. 0.3125 mM), 91.0%; in the data set on GABA-AT [5] (Conc. 0.625 mM), 93.6%; in the data set with GABA-AT [5] (Conc. 1.25 mM), 93.4%; in the data set on GABA-AT [5] (Conc. 2.5 mM) it was 88.3%. The “Activity Remaining (GABA-AT)” value in the data set on GABA-AT [5] (Conc. 5 mM) is listed as 67.8%; in the data set on GABA-AT [5] (Conc. 10 mM), 44.7%. For the same molecule, the “inhibition of GABA-AT (in words)” value was “does not inhibit GABA-AT potently; also recorded: neither compound potently inhibited GABA-AT” in the data set on GABA-AT [5] (hydrochloride); “inhibitory activity against the enzymes GABA-AT and OAT” in the data set on GABA-AT [5] (listed as 1, hydrochloride); “only very weakly inhibit GABA-AT” with GABA-AT [5] (setting [10]).

(Values after patent US11078153B2, “2-difluoro substituted 4-aminocyclopentanecarboxylic acids as inhibitors of gamma-aminobutyric acid aminotransferase and human ornithine aminotransferase” (Northwestern University, priority 2019, dated 2021).)
